Data on 7 compounds can be found in ChEMBL document CHEMBL1697781, “Assessment of the health effects of chemicals in humans: II. Construction of an adverse effects database for QSAR modeling” (Curr Drug Discov Technol, 2004).

Structures are written as SMILES.

What all share (details): human
For data set [1], the system named is Hepatotoxicity. Nature of the data set: FDA HLAED, serum glutamic oxaloacetic transaminase (SGOT) increase.
In data set [2] the test system is Hepatotoxicity. Briefly: FDA HLAED, alkaline phosphatase increase.
In data set [3] the test system is Hepatotoxicity. Nature of the data set: FDA HLAED, gamma-glutamyl transferase (GGT) increase.
The test system of data set [4] is Hepatotoxicity. Briefly: FDA HLAED, liver enzyme composite activity.
Data set [5] has as its system Hepatotoxicity. Nature of the data set: FDA HLAED, serum glutamic pyruvic transaminase (SGPT) increase.
For data set [6], the system named is Hepatotoxicity. Briefly: FDA HLAED, lactate dehydrogenase (LDH) increase.
Throughout, for GGT Increase - Index Value: reference of the scale not given here.
Throughout, for LDH Increase - Index Value: reference of the scale not given here.

Take `CC(C)(C)NC[C@H](O)COc1cccc2c1CCCC2=O` [LEVOBUNOLOL]: in data set [1], the “SGOT Increase - Activity Score” value is on record as “Inactive”, the “SGOT Increase - Index Value” was 0 and the “SGOT Increase - Number of Reports” value is reported as less than 4. For the same compound, in data set [2], the “Alkaline Phosphatase Increase - Activity Score” value is “Inactive”, the “Alkaline Phosphatase Increase - Index Value” turned out to be 0 and the “Alkaline Phosphatase Increase - Number of Reports” value is recorded as less than 4. Also, in data set [3], the “GGT Increase - Activity Score” value is “Inactive”, the “GGT Increase - Index Value” stood at 0 and the “GGT Increase - Number of Reports” value is reported as less than 4. Further, in data set [4], the “Composite Activity - Active” value was determined as 0, the “Composite Activity - Marginal” value worked out at 0 and the “Composite Activity - Score” value is listed as “Inactive”. Further, in data set [5], the “SGPT Increase - Activity Score” value is “Inactive”, the “SGPT Increase - Index Value” was determined as 0 and the “SGPT Increase - Number of Reports” value was less than 4. In data set [6], the “LDH Increase - Activity Score” value is on record as “Inactive”, the “LDH Increase - Index Value” worked out at 0 and the “LDH Increase - Number of Reports” value is listed as less than 4.

As to `CC1(C)S[C@@H]2[C@H](NC(=O)C3(N)CCCCC3)C(=O)N2[C@H]1C(=O)O` [CYCLACILLIN], in data set [1], the “SGOT Increase - Activity Score” value is “Inactive”, the “SGOT Increase - Index Value” is reported as 0 and the “SGOT Increase - Number of Reports” value is listed as less than 4. Further, in data set [2], the “Alkaline Phosphatase Increase - Activity Score” value was “Inactive”, the “Alkaline Phosphatase Increase - Index Value” is listed as 0 and the “Alkaline Phosphatase Increase - Number of Reports” value was less than 4. In addition, in data set [3], the “GGT Increase - Activity Score” value is “Inactive”, the “GGT Increase - Index Value” came out at 0 and the “GGT Increase - Number of Reports” value is less than 4. Moreover, in data set [4], the “Composite Activity - Active” value came to 0, the “Composite Activity - Marginal” value worked out at 0 and the “Composite Activity - Score” value is given as “Inactive”. Further, in data set [5], the “SGPT Increase - Activity Score” value was “Inactive”, the “SGPT Increase - Index Value” stood at 0 and the “SGPT Increase - Number of Reports” value is recorded as less than 4. Besides, in data set [6], the “LDH Increase - Activity Score” value is listed as “Inactive”, the “LDH Increase - Index Value” came to 0 and the “LDH Increase - Number of Reports” value is given as less than 4.

`C[C@@H](CN1CC(=O)NC(=O)C1)N1CC(=O)NC(=O)C1` [DEXRAZOXANE]: in data set [1], the “SGOT Increase - Activity Score” value is listed as “Inactive”, the “SGOT Increase - Index Value” is recorded as 0 and the “SGOT Increase - Number of Reports” value is recorded as less than 4. Besides, in data set [2], the “Alkaline Phosphatase Increase - Activity Score” value was “Inactive”, the “Alkaline Phosphatase Increase - Index Value” is listed as 0 and the “Alkaline Phosphatase Increase - Number of Reports” value is given as less than 4. Besides, in data set [3], the “GGT Increase - Activity Score” value is “Inactive”, the “GGT Increase - Index Value” is 0 and the “GGT Increase - Number of Reports” value is reported as less than 4. Further, in data set [4], the “Composite Activity - Active” value is given as 0, the “Composite Activity - Marginal” value amounted to 0 and the “Composite Activity - Score” value is recorded as “Inactive”. In data set [5], the “SGPT Increase - Activity Score” value is given as “Inactive”, the “SGPT Increase - Index Value” stood at 0 and the “SGPT Increase - Number of Reports” value is recorded as less than 4. Further, in data set [6], the “LDH Increase - Activity Score” value is listed as “Inactive”, the “LDH Increase - Index Value” came to 0 and the “LDH Increase - Number of Reports” value is less than 4.

Regarding `CC(NC(C)(C)C)C(=O)c1cccc(Cl)c1` (stereo unspecified) [BUPROPION], in data set [1], the “SGOT Increase - Activity Score” value is reported as “Inactive”, the “SGOT Increase - Index Value” came out at 0 and the “SGOT Increase - Number of Reports” value is recorded as less than 4. In data set [2], the “Alkaline Phosphatase Increase - Activity Score” value was “Inactive”, the “Alkaline Phosphatase Increase - Index Value” is 0 and the “Alkaline Phosphatase Increase - Number of Reports” value is less than 4. Further, in data set [3], the “GGT Increase - Activity Score” value was “Inactive”, the “GGT Increase - Index Value” turned out to be 0 and the “GGT Increase - Number of Reports” value is given as less than 4. Further, in data set [4], the “Composite Activity - Active” value worked out at 0, the “Composite Activity - Marginal” value is recorded as 0 and the “Composite Activity - Score” value was “Inactive”. Further, in data set [5], the “SGPT Increase - Activity Score” value is “Inactive”, the “SGPT Increase - Index Value” was 0 and the “SGPT Increase - Number of Reports” value is less than 4. Moreover, in data set [6], the “LDH Increase - Activity Score” value is “Inactive”, the “LDH Increase - Index Value” came out at 0 and the “LDH Increase - Number of Reports” value is reported as less than 4.

As to `O=C(O)P(=O)(O)O` [FOSCARNET], in data set [1], the “SGOT Increase - Activity Score” value is given as “Active”, the “SGOT Increase - Index Value” was 121.1 and the “SGOT Increase - Number of Reports” value is listed as “>= 4”. In data set [2], the “Alkaline Phosphatase Increase - Activity Score” value is given as “Active”, the “Alkaline Phosphatase Increase - Index Value” is reported as 181.6 and the “Alkaline Phosphatase Increase - Number of Reports” value is on record as “>= 4”. In data set [3], the “GGT Increase - Activity Score” value is reported as “Active”, the “GGT Increase - Index Value” turned out to be 36.3 and the “GGT Increase - Number of Reports” value is recorded as less than 4. For the same compound, in data set [4], the “Composite Activity - Active” value is on record as 5, the “Composite Activity - Marginal” value stood at 0 and the “Composite Activity - Score” value was “Active”. For the same compound, in data set [5], the “SGPT Increase - Activity Score” value is reported as “Active”, the “SGPT Increase - Index Value” amounted to 72.6 and the “SGPT Increase - Number of Reports” value is “>= 4”. In addition, in data set [6], the “LDH Increase - Activity Score” value is “Active”, the “LDH Increase - Index Value” stood at 48.4 and the “LDH Increase - Number of Reports” value is recorded as “>= 4”.

Take `CC1=C(/C=C/C(C)=C/C=C/C(C)=C\C(=O)O)C(C)(C)CCC1` [ISOTRETINOIN]: in data set [1], the “SGOT Increase - Activity Score” value is on record as “Active”, the “SGOT Increase - Index Value” was 98.4 and the “SGOT Increase - Number of Reports” value is recorded as “>= 4”. Further, in data set [2], the “Alkaline Phosphatase Increase - Activity Score” value was “Active”, the “Alkaline Phosphatase Increase - Index Value” was 45.7 and the “Alkaline Phosphatase Increase - Number of Reports” value is “>= 4”. In data set [3], the “GGT Increase - Activity Score” value was “Inactive”, the “GGT Increase - Index Value” is given as 0 and the “GGT Increase - Number of Reports” value was less than 4. In data set [4], the “Composite Activity - Active” value turned out to be 4, the “Composite Activity - Marginal” value came out at 0 and the “Composite Activity - Score” value is “Active”. In data set [5], the “SGPT Increase - Activity Score” value is “Active”, the “SGPT Increase - Index Value” is 63.7 and the “SGPT Increase - Number of Reports” value was “>= 4”. Besides, in data set [6], the “LDH Increase - Activity Score” value was “Active”, the “LDH Increase - Index Value” stood at 54 and the “LDH Increase - Number of Reports” value is on record as “>= 4”.

In the case of `Cn1nnnc1SCC1=C(C(=O)O)N2C(=O)[C@@H](NC(=O)[C@H](O)c3ccccc3)[C@H]2SC1` [CEFAMANDOLE], in data set [1], the “SGOT Increase - Activity Score” value is given as “Inactive”, the “SGOT Increase - Index Value” is reported as 0 and the “SGOT Increase - Number of Reports” value is listed as less than 4. For the same compound, in data set [2], the “Alkaline Phosphatase Increase - Activity Score” value is reported as “Inactive”, the “Alkaline Phosphatase Increase - Index Value” stood at 0 and the “Alkaline Phosphatase Increase - Number of Reports” value is listed as less than 4. In addition, in data set [3], the “GGT Increase - Activity Score” value is “Inactive”, the “GGT Increase - Index Value” is recorded as 0 and the “GGT Increase - Number of Reports” value is listed as less than 4. In data set [4], the “Composite Activity - Active” value came out at 0, the “Composite Activity - Marginal” value worked out at 0 and the “Composite Activity - Score” value is reported as “Inactive”. For the same compound, in data set [5], the “SGPT Increase - Activity Score” value is “Inactive”, the “SGPT Increase - Index Value” is on record as 0 and the “SGPT Increase - Number of Reports” value is on record as less than 4. In data set [6], the “LDH Increase - Activity Score” value is recorded as “Inactive”, the “LDH Increase - Index Value” amounted to 0 and the “LDH Increase - Number of Reports” value is given as less than 4.
